Test results taken from patent US20220281931A1, “CHEMICALLY INDUCIBLE POLYPEPTIDE POLYMERIZATION” (Dana-Farber Cancer Institute, Inc., priority 2019, published 2022).

Assays:
[1] = target: T1, endogenous BCL6 (Homo sapiens, UniProt P41182); experiment: Immunofluorescence of endogenous BCL6 in SuDHL4 cells; assay type: cell-based; conditions: 1 μM BI-3802, 1 hour
T1 construct: endogenous in cells; host or cells: SuDHL4 / SuDHL4Cas9 cells
Method: In vitro ubiquitination for identification of compatible E2 conjugating enzymes was performed by following the manufacturer's instructions (K-982, Boston Biochem), using Strep II-Avi-BCL6^5-360 and Flag-SIAH1^FL. Time-course in vitro ubiquitination was performed by mixing the substrate (BCL6, 2 μM), E3 (SIAH, 0.5 μM), E1 (UBA1, Boston Biochem, 0.2 μM, E2 (UBE2D1, Boston Biochem, 0.5 μM), and ubiquitin (Boston Biochem, 50 μM), with a reaction buffer (B-71, Boston Biochem) containing BI-3802 or DMSO (normalized to 1% DMSO) in 15 μL volume each. Reactions were initiated by adding 5 μL of Mg-ATP solution (B-20, Boston Biochem), incubated for up to 60 min at 37° C., and analyzed by western blot using Strep tag II Antibody HRP conjugate (71591-3, Sigma) at 1:4,000. 0.8×10^6 cells/mL SuDHL4 cells were treated with DMSO or 0.5 μM E1 Inhibitor (3 h)+1 μM BI-3802 (I h) and 200 μL of the cell suspension was immobilized on a slide using the Cytospin™ 4 Cytocentrifuge (CytoSpin 4, A78300003; 6000 rpm, 6 min). Medium was aspirated and cells were fixed with 4% formaldehyde diluted in warm PBS for 15 min at room temperature. Slides were washed three times for 5 min with PBS, blocked and permeabilized with blocking solution (5% Normal Goat Serum (Cell Signaling), 0.3% Triton X-100 in PBS) for 60 min and stained with anti-BCL6 antibody in blocking solution overnight at 4° C. […]

[2] = target: T2, BCL6^5-129 (Homo sapiens, UniProt P41182); experiment: BCL6-BCoR TR-FRET (compound binding assay); conditions: 0.1 μM FITCBCoR polypeptide, 0.1 μM BiotinBCL6^5-129
T2 construct: mixing 100 nM biotinylated BCL6^5-129, 100 nM N-terminal FITC-labeled BCoR peptide; made in house; host or cells: Trichoplusia ni High Five insect cells, baculovirus
Method: Competitive titration of BI-3802 or BI-3812 were carried out by mixing 100 nM biotinylated BCL6^5-129, 100 nM N-terminal FITC-labeled BCoR peptide (sequence: […]), and 2 nM terbium-coupled streptavidin in the same assay buffer. After dispensing the assay mixture (15 μL volume), increasing concentrations of compounds were dispensed in a 384-well microplate (Corning, 4514) using a D300e Digital Dispenser (HP) normalized to 1% DMSO. The 520/490 nm ratios were measured as described above and plotted to calculate the KD^APP values using dose-response analysis standard four parameter log-logistic curves using the dr4pl R package.

CNC(=O)COc1cc2cc(Nc3nc(N4C[C@H](C)C[C@H](C)C4)ncc3Cl)ccc2n(C)c1=O [BI-3802, 2-((6-((5-chloro-2-((3S,5R)-3,5-dimethylpiperidin-1-yl)pyrimidin-4-yl)amino)-1-methyl-2-oxo-1,2-dihydroquinolin-3-yl)oxy)-N-methylacetamide]
endogenous BCL6 foci formation [1]: endogenous BCL6 also formed foci | affinity of compound to BCL6 (BCoR peptide competition) [2]: comparable affinity
